Source: US8993752B2, “Neprilysin inhibitors” (Theravance Biopharma R&D IP, LLC, priority 2011, dated 2015)

Molecular target: T1, human NEP (Homo sapiens, UniProt P08473)
T1 construct: purchased R&D Systems, Minneapolis, Minn; 1182-ZN
Assay: In vitro enzyme inhibition assay at human NEP (fluorogenic peptide substrate)
Type: biochemical
Settings: recombinant human NEP, substrate Mca-D-Arg-Arg-Leu-Dap-(Dnp)-OH 10 μM, 37° C., values given as ranges; for Ki: read-out: pKi values at human NEP (converted)
Procedure: The inhibitory activities of compounds at human and rat neprilysin (EC 3.4.24.11; NEP) and human angiotensin converting enzyme (ACE) were determined using in vitro assays as described below.
Recombinant human NEP and recombinant human ACE were obtained commercially (R&D Systems, Minneapolis, Minn., catalog numbers 1182-ZN and 929-ZN, respectively). The fluorogenic peptide substrate Mca-D-Arg-Arg-Leu-Dap-(Dnp)-OH (Medeiros et al. (1997) Braz. J. Med. Biol. Res. 30:1157-62; Anaspec, San Jose, Calif.) and Abz-Phe-Arg-Lys(Dnp)-Pro-OH (Araujo et al. (2000) Biochemistry 39:8519-8525; Bachem, Torrance, Calif.) were used in the NEP and ACE assays respectively.
The assays were performed in 384-well white opaque plates at 37° C. using the fluorogenic peptide substrates at a concentration of 10 μM in Assay Buffer (NEP: 50 mM HEPES, pH 7.5, 100 mM NaCl, 0.01% polyethylene glycol sorbitan monolaurate (Tween-20), 10 μM ZnSO4; ACE: 50 mM HEPES, pH 7.5, 100 mM NaCl, 0.01% Tween-20, 1 μM ZnSO4).
Test compounds were assayed over the range of concentrations from 10 μM to 20 pM. Test compounds were added to the enzymes and incubated for 30 minute at 37° C. prior to initiating the reaction by the addition of substrate. Reactions were terminated after 20 minutes of incubation at 37° C. by the addition of glacial acetic acid to a final concentration of 3.6% (v/v).
Plates were read on a fluorometer with excitation and emission wavelengths set to 320 nm and 405 nm, respectively Inhibition constants were obtained by nonlinear regression of the data using the equation (GraphPad Software, Inc., San Diego, Calif.): v=v0/[1+(I/K′)] where v is the reaction rate, v0 is the uninhibited reaction rate, I is the inhibitor concentration and K′ is the apparent inhibition constant.
Compounds of the invention were tested in this assay and found to have pKi values at human NEP as follows.

T1 sequence (P08473 whole entry): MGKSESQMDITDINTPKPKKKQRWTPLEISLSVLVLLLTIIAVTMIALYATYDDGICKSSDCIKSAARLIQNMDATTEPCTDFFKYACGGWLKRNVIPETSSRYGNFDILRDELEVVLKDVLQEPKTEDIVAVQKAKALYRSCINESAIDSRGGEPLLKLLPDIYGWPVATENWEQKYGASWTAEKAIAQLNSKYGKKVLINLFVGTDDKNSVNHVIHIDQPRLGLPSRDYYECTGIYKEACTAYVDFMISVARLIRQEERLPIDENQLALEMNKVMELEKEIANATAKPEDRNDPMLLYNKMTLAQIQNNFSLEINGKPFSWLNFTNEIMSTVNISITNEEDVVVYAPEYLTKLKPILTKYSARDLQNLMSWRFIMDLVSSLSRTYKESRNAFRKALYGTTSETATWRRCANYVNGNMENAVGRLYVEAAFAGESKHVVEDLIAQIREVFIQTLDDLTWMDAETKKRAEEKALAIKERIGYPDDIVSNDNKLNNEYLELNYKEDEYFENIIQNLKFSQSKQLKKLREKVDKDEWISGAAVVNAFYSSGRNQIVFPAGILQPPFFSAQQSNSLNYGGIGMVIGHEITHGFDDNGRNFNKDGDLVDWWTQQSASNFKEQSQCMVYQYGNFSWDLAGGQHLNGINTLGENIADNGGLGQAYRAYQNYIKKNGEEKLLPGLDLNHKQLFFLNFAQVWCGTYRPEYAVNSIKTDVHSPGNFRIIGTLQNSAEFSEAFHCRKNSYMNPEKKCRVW

SMILES	Ki [nM]	pKi values at human NEP
O=C(N[C@H](Cc1ccccc1Cl)[C@@H](O)C(=O)O)c1cc(C(=O)O)n(Cc2cccc(Cl)c2)n1 [Example 2-10, 5-[(1R,2R)-2-Carboxy-1-(2-chloro-benzyl)-2-hydroxy-ethylcarbamoyl]-2-(3-chloro-benzyl)-2H-pyrazole-3-carboxylic acid]	1.26 to 10	–
O=C(N[C@H](Cc1ccccc1Cl)[C@@H](O)C(=O)O)c1cc(C(=O)O)n(Cc2c(F)cc(Cl)cc2F)n1 [Example 2-2, 5-[(1R,2R)-2-Carboxy-1-(2-chloro-benzyl)-2-hydroxy-ethylcarbamoyl]-2-(4-chloro-2,6-difluoro-benzyl)-2H-pyrazole-3-carboxylic acid]	1.26 to 10	–
COCCn1nc(C(=O)N[C@H](Cc2ccccc2)[C@@H](O)C(=O)O)cc1C(=O)O [Example 8-13, 5-((1R,2R)-1-Benzyl-2-carboxy-2-hydroxy-ethylcarbamoyl)-2-(2-methoxy-ethyl)-2H-pyrazole-3-carboxylic acid]	12.6 to 100	–
O=C(N[C@H](Cc1ccccc1C(F)(F)F)[C@@H](O)C(=O)O)c1cc(C(=O)NCCc2c[nH]cn2)[nH]n1 [Example 6-4, (2R,3R)-2-Hydroxy-3-({5-[2-(1H-imidazol-4-yl)-ethylcarbamoyl]-1H-pyrazole-3-carbonyl}-amino)-4-(2-trifluoromethyl-phenyl)-butyric acid]	12.6 to 100	–
CCOc1ncc(Cn2nc(C(=O)N[C@H](Cc3ccccc3)[C@@H](O)C(=O)O)cc2C2CC2)cn1 [Example 8-24, (2R,3R)-3-{[5-Cyclopropyl-1-(2-ethoxy-pyrimidin-5-ylmethyl)-1H-pyrazole-3-carbonyl]-amino}-2-hydroxy-4-phenyl-butyric acid]	12.6 to 100	–
COc1ccc(Cn2nc(C(=O)N[C@@H](CC(=O)O)Cc3ccccc3Cl)cc2C(=O)O)cc1 [Example 11-2, 5-[(R)-2-Carboxy-1-(2-chloro-benzyl)-ethylcarbamoyl]-2-(4-methoxy-benzyl)-2H-pyrazole-3-carboxylic acid]	12.6 to 100	–
COc1ccc(Cn2nc(C(=O)N[C@H](Cc3ccccc3Cl)[C@@H](O)C(=O)O)cc2O)c(F)c1F [Example 2-68, (2R,3R)-4-(2-Chloro-phenyl)-3-{[1-(2,3-difluoro-4-methoxy-benzyl)-5-hydroxy-1H-pyrazole-3-carbonyl]-amino}-2-hydroxy-butyric acid]	12.6 to 100	–
O=C(N[C@H](Cc1ccccc1C(F)(F)F)[C@@H](O)C(=O)O)c1cc(C(=O)NC2CC2)[nH]n1 [Example 6-6, (2R,3R)-3-[(5-Cyclopropylcarbamoyl-1H-pyrazole-3-carbonyl)-amino]-2-hydroxy-4-(2-trifluoromethyl-phenyl)-butyric acid]	12.6 to 100	–
O=C(N[C@H](Cc1ccccc1C(F)(F)F)[C@@H](O)C(=O)O)c1cc(C(=O)N2CC[C@H](C(=O)O)C2)[nH]n1 [Example 6-11, (S)-1-{5-[(1R,2R)-2-Carboxy-2-hydroxy-1-(2-trifluoromethyl-benzyl)-ethylcarbamoyl]-2H-pyrazole-3-carbonyl}-pyrrolidine-3-carboxylic acid]	1.26 to 10	–
O=C(N[C@H](Cc1ccccc1Cl)[C@@H](O)C(=O)O)c1cc(C(=O)O)n(Cc2ccc(Br)cc2)n1 [Example 2-41, 2-(4-Bromo-benzyl)-5-[(1R,2R)-2-carboxy-1-(2-chloro-benzyl)-2-hydroxy-ethylcarbamoyl]-2H-pyrazole-3-carboxylic acid]	≤ 1	–
O=C(N[C@H](Cc1ccccc1)[C@@H](O)C(=O)O)c1cc(C(=O)O)n(Cc2cccc(F)c2)n1 [Example 8-4, 5-((1R,2R)-1-Benzyl-2-carboxy-2-hydroxy-ethylcarbamoyl)-2-(3-fluoro-benzyl)-2H-pyrazole-3-carboxylic acid]	1.26 to 10	–
O=C(N[C@H](Cc1ccccc1Cl)[C@@H](O)C(=O)O)c1cc(-c2ccccc2Cl)n(-c2ccc(Cl)cc2Cl)n1 [Example 2-64, (2R,3R)-4-(2-Chloro-phenyl)-3-{[5-(2-chloro-phenyl)-1-(2,4-dichloro-phenyl)-1H-pyrazole-3-carbonyl]-amino}-2-hydroxy-butyric acid]	12.6 to 100	–
COc1c(F)c(F)c(Cn2nc(C(=O)N[C@H](Cc3ccccc3Cl)[C@@H](O)C(=O)O)cc2C(C)=O)c(F)c1F [Example 2-71, (2R,3R)-3-{[5-Acetyl-1-(2,3,5,6-tetrafluoro-4-methoxy-benzyl)-1H-pyrazole-3-carbonyl]-amino}-4-(2-chloro-phenyl)-2-hydroxy-butyric acid]	≤ 1	–
O=C(O)C[C@@H](Cc1ccccc1Cl)NC(=O)c1cc(C(=O)O)n(Cc2ccncc2)n1 [Example 11-11, 5-[(R)-2-Carboxy-1-(2-chloro-benzyl)-ethylcarbamoyl]-2-pyridin-4-ylmethyl-2H-pyrazole-3-carboxylic acid]	12.6 to 100	–
O=C(N[C@H](Cc1ccccc1Cl)[C@@H](O)C(=O)O)c1cc(C(=O)O)n(Cc2ccc(Cl)c(OC(F)(F)F)c2)n1 [Example 2-13, 5-[(1R,2R)-2-Carboxy-1-(2-chloro-benzyl)-2-hydroxy-ethylcarbamoyl]-2-(4-chloro-3-trifluoromethoxy-benzyl)-2H-pyrazole-3-carboxylic acid]	12.6 to 100	–
CN(C)C(=O)c1cc(C(=O)N[C@H](Cc2ccccc2Cl)[C@@H](O)C(=O)O)n[nH]1 [Example 2-54]	–	8.0-8.9
O=C(N[C@H](Cc1ccccc1Cl)[C@@H](O)C(=O)O)c1cc(C(=O)O)n(Cc2ccc(Cl)cc2C(F)(F)F)n1 [Example 2-12, 5-[(1R,2R)-2-Carboxy-1-(2-chloro-benzyl)-2-hydroxy-ethylcarbamoyl]-2-(4-chloro-2-trifluoromethyl-benzyl)-2H-pyrazole-3-carboxylic acid]	12.6 to 100	–
O=C(O)C[C@@H](Cc1ccccc1Cl)NC(=O)c1cc(C(=O)O)n(Cc2ccccc2)n1 [Example 11-4, 2-Benzyl-5-[(R)-2-carboxy-1-(2-chloro-benzyl)-ethylcarbamoyl]-2H-pyrazole-3-carboxylic acid]	12.6 to 100	–
O=C(N[C@H](Cc1ccccc1)[C@@H](O)C(=O)O)c1cc(C(=O)O)n(Cc2ccc(Cl)cc2F)n1 [Example 8-1, 5-((1R,2R)-1-Benzyl-2-carboxy-2-hydroxy-ethylcarbamoyl)-2-(4-chloro-2-fluoro-benzyl)-2H-pyrazole-3-carboxylic acid]	1.26 to 10	–
O=C(N[C@H](Cc1ccccc1Cl)[C@@H](O)C(=O)O)c1cc(-c2ccc3ccccc3c2)[nH]n1 [Example 2-53, (2R,3R)-4-(2-Chloro-phenyl)-2-hydroxy-3-[(5-naphthalen-2-yl-1H-pyrazole-3-carbonyl)-amino]-butyric acid]	12.6 to 100	–
O=C(N[C@H](Cc1ccccc1)[C@@H](O)C(=O)O)c1cc(C(=O)O)n(Cc2c(F)cc(Cl)cc2F)n1 [Example 8-3, 5-((1R,2R)-1-Benzyl-2-carboxy-2-hydroxy-ethylcarbamoyl)-2-(4-chloro-2,6-difluoro-benzyl)-2H-pyrazole-3-carboxylic acid]	1.26 to 10	–
O=C(N[C@H](Cc1ccccc1C(F)(F)F)[C@@H](O)C(=O)O)c1cc(C(=O)N2CCC(O)CC2)[nH]n1 [Example 6-8, (2R,3R)-2-Hydroxy-3-{[5-(4-hydroxy-piperidine-1-carbonyl)-1H-pyrazole-3-carbonyl]-amino}-4-(2-trifluoromethyl-phenyl)-butyric acid]	12.6 to 100	–
O=C(O)Cn1nc(C(=O)N[C@H](Cc2ccccc2Cl)[C@@H](O)C(=O)O)cc1-c1ccc(Cl)cc1Cl [Example 2-74, (2R,3R)-3-{[1-Carboxymethyl-5-(2,4-dichlorophenyl)-1H-pyrazole-3-carbonyl]-amino}-4-(2-chloro-phenyl)-2-hydroxy-butyric acid]	12.6 to 100	–
CCCCCCn1nc(C(=O)N[C@@H](CC(=O)O)Cc2ccccc2Cl)cc1C(=O)O [Example 11-8, 5-[(R)-2-Carboxy-1-(2-chloro-benzyl)-ethylcarbamoyl]-2-hexyl-2H-pyrazole-3-carboxylic acid]	12.6 to 100	–
O=C(N[C@H](Cc1ccccc1)[C@@H](O)C(=O)O)c1cc(C(=O)O)n(Cc2ccc(Cl)cc2)n1 [Example 8-6, 5-((1R,2R)-1-Benzyl-2-carboxy-2-hydroxy-ethylcarbamoyl)-2-(4-chloro-benzyl)-2H-pyrazole-3-carboxylic acid]	1.26 to 10	–
O=C(N[C@H](Cc1ccccc1Cl)[C@@H](O)C(=O)O)c1cc(-c2ccccc2O)[nH]n1 [Example 2-50, (2R,3R)-4-(2-Chloro-phenyl)-2-hydroxy-3-{[5-(2-hydroxy-phenyl)-1H-pyrazole-3-carbonyl]-amino}-butyric acid]	12.6 to 100	–
